Structures are written as SMILES.

T1 sequence (P52699 22-246 limits assumed): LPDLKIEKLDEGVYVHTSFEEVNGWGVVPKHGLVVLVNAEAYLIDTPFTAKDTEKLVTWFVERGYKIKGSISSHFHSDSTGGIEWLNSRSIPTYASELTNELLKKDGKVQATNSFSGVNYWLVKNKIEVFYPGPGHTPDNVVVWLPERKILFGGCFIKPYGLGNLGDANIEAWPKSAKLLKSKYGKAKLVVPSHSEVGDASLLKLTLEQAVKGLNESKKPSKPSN

The first assay has as its target T1, IMP-1 (Serratia marcescens, UniProt P52699).
Test: not given
As to conditions: read-out: Kic; against IMP-1; reference inhibitor; cited from earlier work.
`O=C(CS)N[C@@H](Cc1ccc(OCc2ccccc2)cc1)C(=O)O` [Compound 1, L-benzyl tyrosine thiol carboxylic acid]: the Ki was 0.086 ± 0.024 µM.

In another assay the target is T1, IMP-1. The assay can be described thus: Kinetic inhibition assay of IMP-1 (hydrolysis of benzyl penicillin followed at 235 nm), Kic. It is filed as biochemical.
Conditions: not given
From the text:
The IMP-1 enzyme, lacking the first 21 signal peptide amino acid residues, was expressed and purified using the protocol of Vella et al.[45–46] The reported methods for monitoring of MBLs activities are based on the consequences of the hydrolysis of β-lactam ring of substrates. The MBL-catalysed reaction is usually monitored by following the changing absorbance at the wavelength where the difference in the molar absorptivity, ΔɛM, is maximal or near the maximum value. There are a few β-lactam substrates which can be used for in vitro assays of MBLs inhibitors. CENTA,[47] a type of cephalosporin, and Penicillin G (benzyl penicillin)[48] are well-known substrates due to commercial availability, inexpensive prices and comfort of their syntheses. For this study, Penicillin G was used as CENTA was not compatible with the inhibitor type as reported by Arjomandi et al.[1] The monitoring of hydrolysis of benzyl penicillin by the synthesized compounds was carried out in UV plate at wavelength 235 nm as no chromosphere is released (Figure 7). The concentration of benzyl penicillin is reduced upon hydrolysis by IMP-1 causing a decrease in the absorption at 235 nm over the time, thereby allowing a way to monitor the reaction. Inhibitors of metallo-β-lactamase decrease the rate of hydrolysis of benzyl penicillin, thus, providing a way of measuring the activities of inhibitors against MBLs.
Benzyl penicillin solutions were prepared fresh at the time of assay as their activities will change and stop after 24 h even with keeping in the fridge.[1] In the first step, the inhibitory activities (IC50 values) of the inhibitors 2a–k were measured by a screening assay which evaluated the residual activity of the enzyme. […] Further kinetic analyses then allowed the determination of Kic values of these compounds based on the procedure reported by Arjomandi et al.[1] Inhibition assays for IMP-1 were performed in 96 well 400 µL UV multi-titre plates using a UV multi-plate spectrophotometer. The hydrolysis rate of benzyl penicillin (penicillin G sodium salt) was measured at λ = 235 nm.[49] The initial screening assay (IC50 values) was performed in duplicate, with benzyl penicillin as the substrate and HEPESX (50 mM HEPES, 0.1 M NaCl, […], pH 7.0) as the buffer at 25 °C. The final concentrations of enzyme and benzyl penicillin were 10 nM and 500 µM, respectively. Bovine serum albumin (a final concentration of 20 µg/mL) was added to the enzyme for stability. For each well, 196 µL substrate and 4 µL inhibitor were added followed by the addition of 200 µL of enzyme. The rate of the hydrolysis of substrate was recorded for 5 min. To measure Kic value, four solutions with different concentrations for each molecule were prepared and then were assayed based on the aforementioned procedure while the concentrations of substrate in wells were 200, 400, 600, 800 and 1000 µM. The raw kinetic data were analysed by non-linear regression using the Win Curve Fit program (Kevin Raner Software) and the Kic value was calculated for each molecule.[1] The Kic values of molecules 2a–k are in the range of 1.04–4.77 µM which was unexpected based on the computational modelling results. Although the introduced compounds are still potent enzyme-based inhibitors, they are nearly at least ten times less as potent as the lead inhibitor is. Due to the less inhibition activities of the synthesized molecules in compare to the reference compound, their cell-based assays have not carried out.
As for `O=C(CS)N[C@@H](Cc1ccc(OCc2cccc(Br)c2)cc1)C(=O)O` [Compound 2j, (S)-3-(4-((3-Bromobenzyl)oxy)phenyl)-2-(2-mercaptoacetamido)propanoic acid], the Ki came out at 3.14 ± 0.71 µM. For `Cc1cccc(COc2ccc(C[C@H](NC(=O)CS)C(=O)O)cc2)c1` [Compound 2b, (S)-2-(2-Mercaptoacetamido)-3-(4-((3-methylbenzyl)oxy)phenyl)propanoic acid], the Ki is 1.15 ± 0.49 µM. With `O=C(CS)N[C@@H](Cc1ccc(OCc2ccc(Cl)cc2)cc1)C(=O)O` [Compound 2f, (S)-3-(4-((4-Chlorobenzyl)oxy)phenyl)-2-(2-mercaptoacetamido)propanoic acid], the Ki stood at 3.2 ± 0.59 µM. Turning to `O=C(CS)N[C@@H](Cc1ccc(OCc2cccc(Cl)c2)cc1)C(=O)O` [Compound 2e, (S)-3-(4-((3-chlorobenzyl)oxy)phenyl)-2–(2-mercaptoacetamido)propanoic acid], the Ki turned out to be 4.77 ± 2.81 µM.

The molecule `O=C(CS)N[C@@H](Cc1ccc(OCc2ccc(Br)cc2)cc1)C(=O)O` [Compound 2k, (S)-3-(4-((4-Bromobenzyl)oxy)phenyl)-2-(2-mercaptoacetamido)propanoic acid] returned a Ki of 3.3 ± 0.9 µM. Still for that read-out and setting: then `O=C(CS)N[C@@H](Cc1ccc(OCc2ccc([N+](=O)[O-])cc2)cc1)C(=O)O` [Compound 2i, (S)-2-(2-Mercaptoacetamido)-3-(4-((4-nitrobenzyl)oxy)phenyl)propanoic acid], with 3.2 ± 0.62 µM. The same measure, in the same setting: then `Cc1ccc(COc2ccc(C[C@H](NC(=O)CS)C(=O)O)cc2)cc1` [Compound 2c, (S)-2-(2-Mercaptoacetamido)-3-(4-((4-methylbenzyl)oxy)phenyl)propanoic acid], with 1.07 ± 0.21 µM; and `O=C(CS)N[C@@H](Cc1ccc(OCc2ccccc2[N+](=O)[O-])cc1)C(=O)O` [Compound 2g, (S)-2-(2-Mercaptoacetamido)-3-(4-((2-nitrobenzyl)oxy)phenyl)propanoic acid], with 1.65 ± 0.34 µM; and `Cc1ccccc1COc1ccc(C[C@H](NC(=O)CS)C(=O)O)cc1` [Compound 2a, (S)-2-(2-Mercaptoacetamido)-3-(4-((2-methylbenzyl)oxy)phenyl)propanoic acid], with 1.04 ± 0.28 µM. The same measure, in the same setting: then `O=C(CS)N[C@@H](Cc1ccc(OCc2ccccc2Cl)cc1)C(=O)O` [Compound 2d, (S)-3-(4-((2-Chlorobenzyl)oxy)phenyl)-2-(2-mercaptoacetamido)propanoic acid], with 1.81 ± 0.9 µM.

As to `O=C(CS)N[C@@H](Cc1ccc(OCc2cccc([N+](=O)[O-])c2)cc1)C(=O)O` [Compound 2h, (S)-2-(2-Mercaptoacetamido)-3-(4-((3-nitrobenzyl)oxy)phenyl)propanoic acid], the Ki turned out to be 2.86 ± 1.23 µM.

The values are drawn from article PMC8853707, “Synthesis and enzyme-based evaluation of analogues L-tyrosine thiol carboxylic acid inhibitor of metallo-β-lactamase IMP-1” (Journal of Enzyme Inhibition and Medicinal Chemistry, 2019).
